Measured values as given in patent US11066414B2, “Cot modulators and methods of use thereof” (Gilead Sciences, Inc., priority 2015, dated 2021).
Where two headings read alike, the source gives them in different places.

Legend:
TNFα = assay: Cot Monocyte TNFα Cell Based Assay
Human Cot = Human Cot (Homo sapiens (Human), UniProt P41279); assay: High Throughput Cot Biochemical Assay
[1] = Homo sapiens, Monocyte, read-out: EC50 TNF, LPS-stimulated human monocytes, TNFα TR-FRET
[2] = IC50 HTRF, Cot HTRF (TR-FRET KinEASE) biochemical assay, 400 μM ATP
[3] = read-out: EC50 TNF, LPS-stimulated human monocytes, TNFα
[4] = read-out: IC50 HTRF, Cot HTRF (TR-FRET) biochemical assay
[5] = Homo sapiens, Monocyte, read-out: EC50 TNF, LPS-stimulated human monocytes, TNFα
[6] = IC50 HTRF, Cot HTRF (TR-FRET) biochemical assay

Sequence of Human Cot (P41279 30-397): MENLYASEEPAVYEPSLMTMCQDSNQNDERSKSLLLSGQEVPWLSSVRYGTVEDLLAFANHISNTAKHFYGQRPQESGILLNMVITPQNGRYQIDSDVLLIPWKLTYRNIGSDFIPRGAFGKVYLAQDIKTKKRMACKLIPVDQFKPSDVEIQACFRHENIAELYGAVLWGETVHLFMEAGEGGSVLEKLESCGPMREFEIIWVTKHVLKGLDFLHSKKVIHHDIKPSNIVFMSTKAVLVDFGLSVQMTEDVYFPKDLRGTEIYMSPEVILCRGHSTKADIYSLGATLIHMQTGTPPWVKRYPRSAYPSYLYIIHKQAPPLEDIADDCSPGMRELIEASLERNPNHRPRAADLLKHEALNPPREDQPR

SMILES	EC50 (TNFα; [5]) [nM]	IC50 (Human Cot; [6]) [nM]	also measured
Cc1nc(F)ccc1[C@H](Nc1cc(C#N)c2ncc(C#N)c(NCC(C)(C)C(F)(F)F)c2c1)c1nnn(C2(C)CC2)c1F [Example 863, (S)-6-(((5-fluoro-1-(1-methylcyclopropyl)-1H-1,2,3-triazol-4-yl)(6-fluoro-2-methylpyridin-3-yl)methyl)amino)-4-((3,3,3-trifluoro-2,2-dimethylpropyl)amino)-quinoline-3,8-dicarbonitrile]	–	–	EC50 (TNFα; [1]): 35 nM; IC50 (Human Cot; [2]): 2 nM
Cn1ncc2cccc([C@H](Nc3cc(C#N)c4ncc(C#N)c(NCC(C)(C)C)c4c3)c3cn(C4(C(F)F)CC4)nn3)c21 [Example 605]	–	–	EC50 (TNFα; [3]): 30 nM; IC50 (Human Cot; [4]): 3 nM
CC(C)(C)CNc1c(C#N)cnc2c(Cl)cc(NC(c3cn(C4CC4)nn3)c3csc4c3CCN(C3COC3)C4)cc12 (stereo not shown) [Example 91, 8-chloro-6-(((1-cyclopropyl-1H-1,2,3-triazol-4-yl)(6-(oxetan-3-yl)-4,5,6,7-tetrahydro-thieno[2,3-c]pyridin-3-yl)-methyl)amino)-4-(neopentylamino)-quinoline-3-carbonitrile]	52	2	–
CC(C)(C)CNc1c(C#N)cnc2c(C#N)cc(N[C@H](c3cn(C4(C(F)F)CC4)nn3)c3cccc4c(=O)[nH]ccc34)cc12 [Example 876, (S)-6-(((1-(1-(difluoromethyl)cyclopropyl)-1H-1,2,3-triazol-4-yl)(1-oxo-1,2-dihydroisoquinolin-5-yl)methyl)amino)-4-(neopentylamino)quinoline-3,8-dicarbonitrile]	–	–	EC50 (TNFα; [1]): 385 nM; IC50 (Human Cot; [2]): 2 nM
Cn1ccc2c([C@H](Nc3cc(Cl)c4ncc(C#N)c(NCC(C)(C)C)c4c3)c3cn(C4(C)COC4)nn3)cccc2c1=O [Example 760, (S)-8-chloro-6-(((2-methyl-1-oxo-1,2-dihydroisoquinolin-5-yl)(1-(3-methyloxetan-3-yl)-1H-1,2,3-triazol-4-yl)methyl)amino)-4-(neopentylamino)quinoline-3-carbonitrile]	58	2	–
Cn1cnc(C(Nc2cc(Cl)c3ncc(C#N)c(Nc4ccc(F)c(Cl)c4)c3c2)c2cccnc2)c1 (stereo not shown) [Example 403, 8-chloro-4-((3-chloro-4-fluoro-phenyl)amino)-6-(((1-methyl-1H-imidazol-4-yl)(pyridin-3-yl)methyl)-amino)quinoline-3-carbonitrile]	290	–	IC50 (Human Cot; [4]): 9 nM
N#Cc1cnc2c(Cl)cc(N[C@@H](c3cccnc3)c3cn(CCOCCO)nn3)cc2c1Nc1ccc(F)c(Cl)c1 [Example 341, (S)-8-chloro-4-((3-chloro-4-fluorophenyl)amino)-6-(((1-(2-(2-hydroxyethoxy)ethyl)-1H-1,2,3-triazol-4-yl)(pyridin-3-yl)methyl)-amino)quinoline-3-carbonitrile]	843	6	–
Cc1nc(F)ccc1[C@H](Nc1cc(Cl)c2ncc(C#N)c(NCC(C)(C)C)c2c1)c1cn(C2(CF)CC2)nn1 [Example 495, (S)-8-chloro-6-(((6-fluoro-2-methylpyridin-3-yl)(1-(1-(fluoromethyl)cyclopropyl)-1H-1,2,3-triazol-4-yl)methyl)amino)-4-(neopentylamino)quinoline-3-carbonitrile]	50	3	–
Cc1ccc([C@H](Nc2cc(Cl)c3ncc(C#N)c(NCC(C)(C)C)c3c2)c2cn(C3(C(F)F)CC3)nn2)c(C)n1 [Example 717, (S)-8-chloro-6-(((1-(1-(difluoromethyl)cyclopropyl)-1H-1,2,3-triazol-4-yl)(2,6-dimethylpyridin-3-yl)methyl)amino)-4-(neopentylamino)quinoline-3-carbonitrile]	100	8	–
CC(C)(C)CNc1c(C#N)cnc2c(Cl)cc(N[C@H](c3cn(C4(C(F)F)CC4)nn3)c3cccc4ncccc34)cc12 [Example 508, (S)-8-chloro-6-(((1-(1-(difluoromethyl)-cyclopropyl)-1H-1,2,3-triazol-4-yl)(quinolin-5-yl)methyl)amino)-4-(neopentylamino)-quinoline-3-carbonitrile]	96	4	–
CC(C)(C)CNc1c(C#N)cnc2c(C#N)cc(N[C@H](c3cn(C4(c5ccncc5)CC4)nn3)c3cccc4ncsc34)cc12 [Example 464, (S)-6-((benzo[d]thiazol-7-yl(1-(1-(pyridin-4-yl)cyclopropyl)-1H-1,2,3-triazol-4-yl)methyl)amino)-4-(neopentylamino)-quinoline-3,8-dicarbonitrile]	16	1	–
CC(C)(C)CNc1c(C#N)cnc2c(C#N)cc(N[C@H](c3cn(C4(C(N)=O)CC4)nn3)c3cccc4cnccc34)cc12 [Example 586, (S)-1-(4-(((3,8-dicyano-4-(neopentylamino)-quinolin-6-yl)atnino)(isoquinolin-5-yl)methyl)-1H-1,2,3-triazol-yl)cyclopropane-1-carboxamide]	–	–	EC50 (TNFα; [3]): 1000 nM; IC50 (Human Cot; [4]): 2 nM
CC(C)(C)CNc1c(C#N)cnc2c(C#N)cc(N[C@H](c3cn(C4(C(F)(F)F)CC4)nn3)c3cccc4[nH]ncc34)cc12 [Example 472, (S)-6-(((1H-indazol-4-yl)(1-(1-(trifluoro-methyl)cyclopropyl)-1H-1,2,3-triazol-4-yl)methyl)amino)-4-(neopentylamino)-quinoline-3,8-dicarbonitrile]	78	4	–
[2H]C(Nc1cc(Cl)c2ncc(C#N)c(NCC(C)(C)C)c2c1)(c1cn(C2CC2)nn1)c1ccc(Cl)nc1C (stereo not shown) [Example 125, 8-chloro-6-(((6-chloro-2-methylpyridin-3-yl)(1-cyclopropyl-1H-1,2,3-triazol-4-yl)methyl-d)amino)-4-(neopentylamino)quinoline-3-carbonitrile]	78	3	–
Cc1nc(F)ccc1[C@H](Nc1cc(Cl)c2ncc(C#N)c(NCC(C)(C)C)c2c1)c1nnn(C2(C(F)F)CC2)c1I [Example 707, (S)-8-chloro-6-(((1-(1-(difluoromethyl)cyclopropyl)-5-iodo-1H-1,2,3-triazol-4-yl)(6-fluoro-2-methylpyridin-3-yl)methyl)amino)-4-(neopentylamino)quinoline-3-carbonitrile]	230	16	–
CC(C)(C)CNc1c(C#N)cnc2c(Cl)cc(N[C@H](c3cn(C45CC(C4)C5)nn3)c3ccc(F)c4ncccc34)cc12 [Example 920, (S)-6-(((1-(bicyclo[1.1.1]pentan-1-yl)-1H-1,2,3-triazol-4-yl)(8-fluoroquinolin-5-yl)methyl)amino)-8-chloro-4-(neopentylamino)quinoline-3-carbonitrile]	–	–	EC50 (TNFα; [1]): 28 nM; IC50 (Human Cot; [2]): 3 nM
CN1Cc2cccc([C@H](Nc3cc(C#N)c4ncc(C#N)c(NCC(C)(C)C)c4c3)c3cn(C4CC4)nn3)c2C1=O [Example 77, (S)-6-(((1-cyclopropyl-1H-1,2,3-triazol-4-yl)(2-methyl-3-oxoisoindolin-4-yl)methyl)amino)-4-(neopentylamino)quinoline-3,8-dicarbonitrile]	154	3	–
Cc1ccc([C@H](Nc2cc(Cl)c3ncc(C#N)c(NCC(C)(C)C)c3c2)c2cn(C3(C(F)(F)F)CC3)nn2)c(F)n1 [Example 688, (S)-8-chloro-6-(((2-fluoro-6-methylpyridin-3-yl)(1-(1-(trifluoromethyl)-cyclopropyl)-1H-1,2,3-triazol-4-yl)methyl)amino)-4-(neopentylamino)quinoline-3-carbonitrile]	437	30	–
CC(C)(C)CNc1c(C#N)cnc2c(Br)cc(N[C@H](c3cn(C4CC4)nn3)c3cccc4c3C(=O)NC4)cc12 [Example 78, (S)-8-bromo-6-(((1-cyclopropyl-1H-1,2,3-triazol-4-yl)(3-oxoisoindolin-4-yl)methyl)amino)-4-(neopentylamino)quinoline-3-carbonitrile]	332	3	–
CC(C)n1cc([C@@H](Nc2cc(Cl)c3ncc(C#N)c(N[C@H](c4ccccc4)C(C)(C)O)c3c2)c2cccnc2)nn1 [Example 202, 8-chloro-4-(((R)-2-hydroxy-2-methyl-1-phenylpropyl)amino)-6-(((S)-(1-isopropyl-1H-1,2,3-triazol-4-yl)(pyridin-3-yl)methyl)amino)quinoline-3-carbonitrile]	> 10000	> 10000	–
COc1c([C@@H](Nc2cc(Cl)c3ncc(C#N)c(NCC(C)(C)C)c3c2)c2ccc(F)nc2C)nnn1C1CC1 [Example 967, (S)-8-chloro-6-(((1-cyclopropyl-5-methoxy-1H-1,2,3-triazol-4-yl)(6-fluoro-2-methylpyridin-3-yl)methyl)amino)-4-(neopentylamino)quinoline-3-carbonitrile]	–	–	EC50 (TNFα; [1]): 94 nM; IC50 (Human Cot; [2]): 2 nM
N#Cc1cnc2c(Cl)cc(N[C@@H](C3=CCOCC3)c3cn(C4COC4)nn3)cc2c1Nc1ccc(Cl)c(Cl)c1F [Example 210, (S)-8-chloro-4-((3,4-dichloro-2-fluorophenyl)amino)-6-(((3,6-dihydro-2H-pyran-4-yl)(1-(oxetan-3-yl)-1H-1,2,3-triazol-4-yl)methyl)amino)quinoline-3-carbonitrile]	424	10	–
Cn1ccc2c([C@H](Nc3cc(Cl)c4ncc(C#N)c(NCC(C)(C)C)c4c3)c3cn(C4CCN(C(C)(C)C)CC4)nn3)cccc2c1=O [Example 714, (S)-6-(((1-(1-(tert-butyl)piperidin-4-yl)-1H-1,2,3-triazol-4-yl)(2-methyl-1-oxo-1,2-dihydroisoquinolin-5-yl)methyl)amino)-8-chloro-4-(neopentylamino)quinoline-3-carbonitrile]	57	6	–
